According to ChEMBL document CHEMBL1201862, “PubChem BioAssay data set” (2004):
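All cell lines were grown in 96-well plates and treated with compound for 48 hours. GI50 marks 50% less growth.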 Activity calls are given as the source filed them. Rule as the data show it: active = GI50 up to about 1.1 µM and inactive = higher.

Columns and labels:
Assay in all cases: DTP human tumour cell line panel, 48 h
A549 = system: A549
CCRF-CEM = system: CCRF-CEM
HOP-92 = system: HOP-92
KM12 = system: KM12
M14 = system: M14
Malme-3M = system: Malme-3M
NCI-H460 = system: NCI-H460
OVCAR-4 = system: OVCAR-4
OVCAR-8 = system: OVCAR-8
RPMI-8226 = system: RPMI-8226
SF-539 = system: SF-539
SK-MEL-5 = system: SK-MEL-5
SNB-19 = system: SNB-19
SR = system: SR
SW-620 = system: SW-620
U-251 = system: U-251
UACC-257 = system: UACC-257
SF-295 = system: SF-295
DU-145 = system: DU-145

SMILES	GI50 (A549)	GI50 (CCRF-CEM)	GI50 (HOP-92)	GI50 (KM12)	GI50 (M14)	GI50 (Malme-3M)	GI50 (NCI-H460)	GI50 (OVCAR-4)	GI50 (OVCAR-8)	GI50 (RPMI-8226)	GI50 (SF-539)	GI50 (SK-MEL-5)	GI50 (SNB-19)	GI50 (SR)	GI50 (SW-620)	GI50 (U-251)	GI50 (UACC-257)	GI50 (SF-295)	GI50 (DU-145)
COc1ccc(/C(=N/NC(N)=O)C2(O)C(=O)Nc3ccc([N+](=O)[O-])cc32)cc1 (configuration not stated)	55.6 µM (inactive)	11.6 µM (inactive)	22.4 µM (inactive)	22.6 µM (inactive)	15.3 µM (inactive)	> 10 µM (inactive)	19.3 µM (inactive)	13.6 µM (inactive)	22.3 µM (inactive)	25.6 µM (inactive)	15.7 µM (inactive)	27.3 µM (inactive)	> 10 µM (inactive)	17.4 µM (inactive)	22.8 µM (inactive)	> 10 µM (inactive)	21.1 µM (inactive)	–	–
COC(=O)C(Cc1nc2ccc(Cl)cc2nc1O)/C(=N/NC(N)=O)C(=O)Nc1ccc(Cl)cc1 (configuration not stated)	> 100 µM (inactive)	> 100 µM (inactive)	> 100 µM (inactive)	> 100 µM (inactive)	> 100 µM (inactive)	> 100 µM (inactive)	> 100 µM (inactive)	> 100 µM (inactive)	> 100 µM (inactive)	> 100 µM (inactive)	> 100 µM (inactive)	> 100 µM (inactive)	> 100 µM (inactive)	> 100 µM (inactive)	> 100 µM (inactive)	> 100 µM (inactive)	> 100 µM (inactive)	> 100 µM (inactive)	–
CN(C)[C@@H]1C(O)=C(C(N)=O)C(=O)[C@@]2(O)C(O)=C3C(=O)c4c(O)cccc4C[C@H]3C[C@@H]12	2.32 µM (inactive)	2.37 µM (inactive)	2.26 µM (inactive)	2.13 µM (inactive)	1.99 µM (inactive)	1.51 µM (inactive)	2.18 µM (inactive)	1.68 µM (inactive)	2.89 µM (inactive)	2.17 µM (inactive)	2 µM (inactive)	1.75 µM (inactive)	1.97 µM (inactive)	2.56 µM (inactive)	3.11 µM (inactive)	2.17 µM (inactive)	–	1.7 µM (inactive)	–
O=C1OC(CC(=O)c2ccc(Cl)cc2)C(Cl)=C1Cl (configuration not stated)	> 100 µM (inactive)	35.6 µM (inactive)	> 100 µM (inactive)	> 100 µM (inactive)	> 100 µM (inactive)	> 100 µM (inactive)	> 100 µM (inactive)	> 100 µM (inactive)	> 100 µM (inactive)	46.6 µM (inactive)	> 100 µM (inactive)	> 100 µM (inactive)	> 100 µM (inactive)	48.3 µM (inactive)	> 100 µM (inactive)	> 100 µM (inactive)	> 100 µM (inactive)	> 100 µM (inactive)	–
CCN(CC)c1ccc2cc3ccc(N(CC)CC)cc3[o+]c2c1	3.14 µM (inactive)	0.0419 µM (active)	0.693 µM (active)	0.51 µM (active)	1.95 µM (inactive)	1.2 µM (inactive)	1.78 µM (inactive)	11.1 µM (inactive)	0.407 µM (active)	0.305 µM (active)	2.02 µM (inactive)	2.34 µM (inactive)	7.8 µM (inactive)	0.267 µM (active)	0.237 µM (active)	0.624 µM (active)	2.59 µM (inactive)	4.48 µM (inactive)	–
COCP1(=S)OC(C)CCN1C(C)C (configuration not stated)	> 100 µM (inactive)	–	–	> 100 µM (inactive)	> 100 µM (inactive)	> 100 µM (inactive)	> 100 µM (inactive)	> 100 µM (inactive)	> 100 µM (inactive)	> 100 µM (inactive)	> 100 µM (inactive)	> 100 µM (inactive)	> 100 µM (inactive)	> 100 µM (inactive)	> 100 µM (inactive)	> 100 µM (inactive)	> 100 µM (inactive)	> 100 µM (inactive)	> 100 µM (inactive)
COC(=O)c1ccc(CS(=O)(=O)c2ccccc2)cc1	67.8 µM (inactive)	> 100 µM (inactive)	> 100 µM (inactive)	51.9 µM (inactive)	49.8 µM (inactive)	> 100 µM (inactive)	66.1 µM (inactive)	> 100 µM (inactive)	> 100 µM (inactive)	> 100 µM (inactive)	> 100 µM (inactive)	55.8 µM (inactive)	> 100 µM (inactive)	45 µM (inactive)	45.1 µM (inactive)	> 100 µM (inactive)	> 100 µM (inactive)	61.7 µM (inactive)	–
CC(=O)c1c(O)ccc2c1CC(CC=O)O2 (configuration not stated)	> 100 µM (inactive)	74.8 µM (inactive)	34.3 µM (inactive)	> 100 µM (inactive)	47.5 µM (inactive)	> 100 µM (inactive)	> 100 µM (inactive)	98.6 µM (inactive)	27.6 µM (inactive)	45.3 µM (inactive)	50 µM (inactive)	79.8 µM (inactive)	> 100 µM (inactive)	> 100 µM (inactive)	43.9 µM (inactive)	83.9 µM (inactive)	> 100 µM (inactive)	> 100 µM (inactive)	–
CN1N=C2c3ccccc3CC[C@H]2C1c1ccccc1 (some centres not stated)	35.6 µM (inactive)	> 100 µM (inactive)	5.25 µM (inactive)	36.9 µM (inactive)	56.5 µM (inactive)	25.5 µM (inactive)	28.9 µM (inactive)	23.1 µM (inactive)	41.1 µM (inactive)	28.6 µM (inactive)	86.5 µM (inactive)	–	69.2 µM (inactive)	> 100 µM (inactive)	78.2 µM (inactive)	53.5 µM (inactive)	22.3 µM (inactive)	35.3 µM (inactive)	–
Cc1nc(C(N)=S)sc1C(=O)CC(=O)C(=O)Nc1ccccc1[N+](=O)[O-]	> 100 µM (inactive)	> 100 µM (inactive)	> 100 µM (inactive)	> 100 µM (inactive)	> 100 µM (inactive)	> 100 µM (inactive)	> 100 µM (inactive)	> 100 µM (inactive)	> 100 µM (inactive)	> 100 µM (inactive)	> 100 µM (inactive)	> 100 µM (inactive)	> 100 µM (inactive)	> 100 µM (inactive)	> 100 µM (inactive)	> 100 µM (inactive)	> 100 µM (inactive)	> 100 µM (inactive)	–
COC(=O)CCC(NC(=S)N/N=C/c1ccccn1)C(=O)OC (configuration not stated)	> 100 µM (inactive)	> 100 µM (inactive)	84.5 µM (inactive)	> 100 µM (inactive)	> 100 µM (inactive)	> 100 µM (inactive)	> 100 µM (inactive)	> 100 µM (inactive)	> 100 µM (inactive)	> 100 µM (inactive)	> 100 µM (inactive)	> 100 µM (inactive)	> 100 µM (inactive)	59.2 µM (inactive)	> 100 µM (inactive)	> 100 µM (inactive)	> 100 µM (inactive)	> 100 µM (inactive)	–
Cc1c(C(=O)CC(=O)C(=O)Nc2ccccc2C(F)(F)F)[n+]([O-])c2ccccc2[n+]1[O-]	24.2 µM (inactive)	18.6 µM (inactive)	16.2 µM (inactive)	19.5 µM (inactive)	15.2 µM (inactive)	20.6 µM (inactive)	21.3 µM (inactive)	18.1 µM (inactive)	18.2 µM (inactive)	4.69 µM (inactive)	23.2 µM (inactive)	16.3 µM (inactive)	32.1 µM (inactive)	2.09 µM (inactive)	16.2 µM (inactive)	19.6 µM (inactive)	18.4 µM (inactive)	31.6 µM (inactive)	–
O=c1nc(NC(c2ccccc2)(c2ccccc2)c2ccccc2)ccn1CCO	41.1 µM (inactive)	–	41.4 µM (inactive)	60.3 µM (inactive)	–	> 100 µM (inactive)	57 µM (inactive)	63.2 µM (inactive)	> 100 µM (inactive)	49.8 µM (inactive)	> 100 µM (inactive)	–	> 100 µM (inactive)	36.3 µM (inactive)	> 100 µM (inactive)	> 100 µM (inactive)	> 100 µM (inactive)	61.1 µM (inactive)	–
O=C(CC(C(=O)c1cccs1)c1ccsc1)c1ccc(Cl)s1 (configuration not stated)	> 100 µM (inactive)	> 100 µM (inactive)	–	> 100 µM (inactive)	85.5 µM (inactive)	> 100 µM (inactive)	> 100 µM (inactive)	> 100 µM (inactive)	> 100 µM (inactive)	55.1 µM (inactive)	> 100 µM (inactive)	70.3 µM (inactive)	72.3 µM (inactive)	39.2 µM (inactive)	> 100 µM (inactive)	> 100 µM (inactive)	67.9 µM (inactive)	–	> 100 µM (inactive)
COc1ccc(/C=C(/c2ccc(OC)cc2)c2c(Cl)cc(Cl)c(/C(=C\c3ccc(OC)cc3)c3ccc(OC)cc3)c2/N=N/c2ccccc2)cc1	> 100 µM (inactive)	50.1 µM (inactive)	> 100 µM (inactive)	> 100 µM (inactive)	> 100 µM (inactive)	> 100 µM (inactive)	> 100 µM (inactive)	> 100 µM (inactive)	> 100 µM (inactive)	> 100 µM (inactive)	34.4 µM (inactive)	> 100 µM (inactive)	> 100 µM (inactive)	–	> 100 µM (inactive)	66.4 µM (inactive)	39.7 µM (inactive)	> 100 µM (inactive)	> 100 µM (inactive)
